The target in assay [1] is PRMT5/MEP50 protein complex (Homo sapiens (Human), UniProt O14744). The assay can be described thus: PRMT5 biochemical assay (3H-SAM methylation of H4(1-21) peptide, filter plate scintillation). The following applies: 10 nM PRMT5/MEP50 complex, 200 nM H4(1-21) peptide, 1 uM SAM, 25 minute incubation at room temperature. An outline of the steps: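 Human PRMT5/MEP50 complex (10 nM) methylating H4(1-21) peptide (200 nM) with 3H/unlabelled SAM (1 uM final) in pH 8.5 Tris buffer, 25 min at room temperature. Stopped with TCA, 3H-peptide captured on filter plates and scintillation-counted. IC50 from 4-parameter fit.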

Assay [2] concerns A549 lung adenocarcinoma cells. As to the kind of experiment: A549 proliferation assay (Cell Titer Glo). The class given is cell-based. The following applies: 7 days with compound, cell viability by Cell Titer Glo (ATP). As to the method:
A549 lung adenocarcinoma cells (American Type Culture Collection) were maintained in DMEM growth media (Life Technologies) supplemented with 10% v/v heat inactivated fetal bovine serum (Sigma) and cultured at 37° C., 5% CO2. Exponentially growing A549 cells were plated in 96-well black tissue culture treated plates (Corning) at a density of […] in a volume of 100 μl culture media and allowed to adhere overnight at 37° C., 5% CO2. The following day, compound plates were prepared by making nine-point 3.3-fold dilutions in DMSO with a top concentration of 10 mM. Compounds were further diluted in culture media and 11 μl was added to the cells (final top assay concentration was 10 μM and DMSO was 0.2%). Cells were incubated with compound at 37° C., 5% CO2 for 7 days with media and compound replacement on day 4. Cell viability was assayed on Day 7 by adding 100 μl Cell Titer Glo (Promega) reagent to the plate to measure the amount of ATP present in the cells. Luminescence was read using the Envision 2104 Multilabel Reader (Perkin Elmer). The 50% inhibitory concentration (IC50) was determined using a 4-parameter fit model normalized to the DMSO control in dose response.
Background: ATP-based viability assays read luminescence as a measure of living cells.

The structures appear in SMILES notation. Counter-ions that a name gives are not always drawn.

Sequence of PRMT5/MEP50 protein complex (O14744 other isoform, or with tags, fused parts or gaps): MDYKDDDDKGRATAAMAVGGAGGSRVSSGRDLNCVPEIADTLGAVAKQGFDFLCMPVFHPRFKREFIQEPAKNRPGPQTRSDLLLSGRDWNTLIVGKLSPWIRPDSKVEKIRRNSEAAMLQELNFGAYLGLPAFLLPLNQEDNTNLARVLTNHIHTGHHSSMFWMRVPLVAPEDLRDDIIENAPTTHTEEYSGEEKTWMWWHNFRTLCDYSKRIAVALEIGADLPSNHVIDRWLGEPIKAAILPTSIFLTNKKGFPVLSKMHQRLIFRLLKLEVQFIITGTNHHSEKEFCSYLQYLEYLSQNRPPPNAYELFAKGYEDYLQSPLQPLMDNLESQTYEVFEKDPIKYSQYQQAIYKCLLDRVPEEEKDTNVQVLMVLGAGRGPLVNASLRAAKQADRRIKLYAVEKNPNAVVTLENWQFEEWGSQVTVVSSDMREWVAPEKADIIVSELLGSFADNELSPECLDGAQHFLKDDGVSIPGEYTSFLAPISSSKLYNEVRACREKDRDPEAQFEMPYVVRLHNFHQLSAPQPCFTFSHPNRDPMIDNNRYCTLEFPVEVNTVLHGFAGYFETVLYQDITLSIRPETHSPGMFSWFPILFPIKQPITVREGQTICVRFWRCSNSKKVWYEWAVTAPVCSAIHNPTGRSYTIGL
Sequence of PRMT5/MEP50 protein complex (Q9BQA1 whole entry partner): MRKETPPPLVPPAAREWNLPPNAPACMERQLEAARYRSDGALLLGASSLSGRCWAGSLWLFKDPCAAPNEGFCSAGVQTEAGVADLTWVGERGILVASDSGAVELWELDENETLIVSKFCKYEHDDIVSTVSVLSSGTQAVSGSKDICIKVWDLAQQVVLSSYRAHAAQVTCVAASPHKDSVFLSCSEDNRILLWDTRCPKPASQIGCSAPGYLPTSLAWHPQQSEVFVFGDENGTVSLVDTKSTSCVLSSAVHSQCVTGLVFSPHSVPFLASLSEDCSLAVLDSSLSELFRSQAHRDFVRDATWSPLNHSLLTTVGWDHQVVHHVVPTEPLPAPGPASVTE

A word on the IC50: it is the concentration needed to halve the response being measured. Turning to `Cc1ncnc2c1ccn2[C@@H]1C[C@H](C(F)c2ccc(F)cc2)[C@@H](O)[C@H]1O` (single isomer, unassigned) [Example 22], the IC50 in assay [1] was found to be 3 nM; in assay [2] (Homo sapiens, A549, 168 h), 135 nM.
On to `Cc1ncnc2c1ccn2[C@@H]1C[C@H](Oc2ccc(F)c3c2CNCC3C)[C@@H](O)[C@H]1O` (single isomer, unassigned) [Example 182, hydrochloride], for which the figures for the concentration for half-maximal inhibition (IC50) in assay [1] and in assay [2] (hydrochloride) were 2 nM and 2180 nM, respectively.
In the same order, the values of `Cc1ncnc2c1ccn2[C@@H]1C[C@H](Oc2ccc(F)c3c2CNCC3C)[C@@H](O)[C@H]1O` (single isomer, unassigned) [Example 183, hydrochloride] are 1 nM and 136 nM.
Consider `Cc1ncnc2c1ccn2[C@@H]1C[C@H](Oc2cccc3c2CNC(C)C3)[C@@H](O)[C@H]1O` (single isomer, unassigned) [Example 184], for which the IC50 came to 1 nM in assay [1] and 1400 nM in assay [2] (Homo sapiens, A549, 168 h).
The corresponding values for `Cc1ncnc2c1ccn2[C@@H]1C[C@H](Oc2cccc3c2C(N)CCC3)[C@@H](O)[C@H]1O` (single isomer, unassigned) [Example 186] are 12 nM and 9530 nM.
In the same order, the values of `Cc1ncnc2c1ccn2[C@@H]1C[C@H](Oc2cccc3c2CC(N)CO3)[C@@H](O)[C@H]1O` (single isomer, unassigned) [Example 188] are 4 nM and 6470 nM.
In the case of `Cc1ncnc2c1ccn2[C@@H]1C[C@H](Oc2ccc(F)c3c2C(C)NCC3)[C@@H](O)[C@H]1O` (single isomer, unassigned) [Example 213], the IC50 came to 1 nM in assay [1] and 1200 nM in assay [2] (Homo sapiens, A549, 168 h).
`Cc1ncnc2c1ccn2[C@@H]1C[C@H](Oc2ccc(F)c3c2C(C)NCC3)[C@@H](O)[C@H]1O` (single isomer, unassigned) [Example 214]: the IC50 in assay [1] came to 8 nM; in assay [2] it was 1080 nM.
On to `Cc1ncnc2c1ccn2[C@@H]1C[C@H]([C@H](O)c2ccc(F)c(F)c2)[C@@H](O)[C@H]1O` [Example 3, (1S,2R,3R,5R)-3-[(S)-(3,4-difluorophenyl) (hydroxy)methyl]-5-(4-methyl-7H-pyrrolo[2,3-d]pyrimidin-7-yl)cyclopentane-1,2-diol], for which the IC50 in assay [1] was 32 nM; in assay [2] (Homo sapiens, 168 h) it was 1100 nM.
Take `Cc1ncnc2c1ccn2[C@@H]1C[C@H]([C@H](O)c2ccc(F)c(Cl)c2)[C@@H](O)[C@H]1O` [Example 5, (1S,2R,3R,5R)-3-[(S)-(3-chloro-4-fluorophenyl) (hydroxy)methyl]-5-(4-methyl-7H-pyrrolo[2,3-d]pyrimidin-7-yl)cyclopentane-1,2-diol]: the IC50 in assay [1] turned out to be 25 nM; in assay [2] (Homo sapiens, 168 h), 932 nM.
With `Nc1ncnc2c1c(Br)cn2[C@@H]1C[C@H](Oc2cc(Cl)cc3c2CNCC3)[C@@H](O)[C@H]1O` [Example 131], the IC50 in assay [2] (Homo sapiens, A549, 168 h) amounted to 482 nM.
In assay [1], `Cc1ncnc2c1ccn2[C@@H]1C[C@H](Oc2cccc3c2C(=O)NCCO3)[C@@H](O)[C@H]1O` [Example 163, 6-(((1S,2S,3S,4R)-2,3-dihydroxy-4-(4-methyl-7H-pyrrolo[2,3-d]pyrimidin-7-yl)cyclopentyl)oxy)-3,4-dihydrobenzo[f][1,4]oxazepin-5(2H)-one] displayed an IC50 greater than 200000 nM.
Same read-out and setting: next, `Cc1ncnc2c1ccn2[C@@H]1C[C@H](Oc2cc(-c3cnco3)cc3c2CNCC3)[C@@H](O)[C@H]1O` [Example 170, (1S,2S,3R,5S)-3-(4-methyl-7H-pyrrolo[2,3-d]pyrimidin-7-yl)-5-((6-(oxazol-5-yl)-1,2,3,4-tetrahydroisoquinolin-8-yl)oxy)cyclopentane-1,2-diol]: 1 nM; `Cc1ncnc2c1ccn2[C@@H]1C[C@H](Oc2cc(-c3cc[nH]n3)cc3c2CNCC3)[C@@H](O)[C@H]1O` [Example 171, (1S,2S,3S,5R)-3-((6-(1H-pyrazol-3-yl)-1,2,3,4-tetrahydroisoquinolin-8-yl)oxy)-5-(4-methyl-7H-pyrrolo[2,3-d]pyrimidin-7-yl)cyclopentane-1,2-diol]: 14 nM.
Same read-out and setting: as for `Cc1ncnc2c1ccn2[C@@H]1C[C@H](Oc2cccc3ccncc23)[C@@H](O)[C@H]1O` [Example 172, (1S,2S,3S,5R)-3-(isoquinolin-8-yloxy)-5-(4-methyl-7H-pyrrolo[2,3-d]pyrimidin-7-yl)cyclopentane-1,2-diol], the figure is 1280 nM; as for `Cc1cn([C@@H]2C[C@H](Oc3cc(F)c(F)c4c3CNCC4)[C@@H](O)[C@H]2O)c2ncnc(N)c12` [Example 179, (1S,2S,3R,5S)-3-(4-amino-5-methyl-7H-pyrrolo[2,3-d]pyrimidin-7-yl)-5-((5,6-difluoro-1,2,3,4-tetrahydroisoquinolin-8-yl)oxy)cyclopentane-1,2-diol], 1 nM.
Still for that read-out and setting: next, `Cc1ncnc2c1ccn2[C@@H]1C[C@H](Oc2cc(C(F)F)c(F)c3c2CNCC3)[C@@H](O)[C@H]1O` [Example 190, (1S,2S,3S,5R)-3-((6-(difluoromethyl)-5-fluoro-1,2,3,4-tetrahydroisoquinolin-8-yl)oxy)-5-(4-methyl-7H-pyrrolo[2,3-d]pyrimidin-7-yl)cyclopentane-1,2-diol]: 1 nM; `CCOc1nc(O[C@H]2C[C@@H](n3ccc4c(C)ncnc43)[C@H](O)[C@@H]2O)c2c(c1F)CCNC2` [Example 192, (1S,2S,3S,5R)-3-((3-ethoxy-4-fluoro-5,6,7,8-tetrahydro-2,7-naphthyridin-1-yl)oxy)-5-(4-methyl-7H-pyrrolo[2,3-d]pyrimidin-7-yl)cyclopentane-1,2-diol]: 55 nM.
Compound `Cc1ncnc2c1ccn2[C@@H]1C[C@H](Oc2nc(OC(C)C)c(F)c3c2CNCC3)[C@@H](O)[C@H]1O` [Example 193, (1S,2S,3S,5R)-3-((4-fluoro-3-isopropoxy-5,6,7,8-tetrahydro-2,7-naphthyridin-1-yl)oxy)-5-(4-methyl-7H-pyrrolo[2,3-d]pyrimidin-7-yl)cyclopentane-1,2-diol] gave an IC50 in assay [1] of 180 nM.
On the same count and under the same terms, as for `CCOc1cc(O[C@H]2C[C@@H](n3ccc4c(C)ncnc43)[C@H](O)[C@@H]2O)c2c(c1F)CCNC2` [Example 199, (1S,2S,3S,5R)-3-((6-ethoxy-5-fluoro-1,2,3,4-tetrahydroisoquinolin-8-yl)oxy)-5-(4-methyl-7H-pyrrolo[2,3-d]pyrimidin-7-yl)cyclopentane-1,2-diol], the figure is 91 nM.
For the compound `Cc1ncnc2c1ccn2[C@@H]1C[C@H](Oc2cc(OC(F)F)c(F)c3c2CNCC3)[C@@H](O)[C@H]1O` [Example 200, (1S,2S,3S,5R)-3-((6-(difluoromethoxy)-5-fluoro-1,2,3,4-tetrahydroisoquinolin-8-yl)oxy)-5-(4-methyl-7H-pyrrolo[2,3-d]pyrimidin-7-yl)cyclopentane-1,2-diol], the IC50 in assay [2] (Homo sapiens, A549, 168 h) came to 140 nM.
For `Cc1ncnc2c1ccn2[C@@H]1C[C@H](Oc2cc(OC(C)C)c(F)c3c2CNCC3)[C@@H](O)[C@H]1O` [Example 201, (1S,2S,3S,5R)-3-((5-fluoro-6-isopropoxy-1,2,3,4-tetrahydroisoquinolin-8-yl)oxy)-5-(4-methyl-7H-pyrrolo[2,3-d]pyrimidin-7-yl)cyclopentane-1,2-diol], the IC50 in assay [1] is 310 nM.
As to `Cc1ncnc2c1ccn2[C@@H]1C[C@H](Oc2cc(C(F)F)cc3c2CNCCO3)[C@@H](O)[C@H]1O` [Example 205, (1S,2S,3S,5R)-3-((8-(difluoromethyl)-2,3,4,5-tetrahydrobenzo[f][1,4]oxazepin-6-yl)oxy)-5-(4-methyl-7H-pyrrolo[2,3-d]pyrimidin-7-yl)cyclopentane-1,2-diol], the IC50 in assay [2] (Homo sapiens, A549, 168 h) came to 248 nM.
Regarding `Cc1cc2c(c(O[C@H]3C[C@@H](n4ccc5c(C)ncnc54)[C@H](O)[C@@H]3O)c1)CNCCO2` [Example 206, (1S,2S,3S,5R)-3-((8-methyl-2,3,4,5-tetrahydrobenzo[f][1,4]oxazepin-6-yl)oxy)-5-(4-methyl-7H-pyrrolo[2,3-d]pyrimidin-7-yl)cyclopentane-1,2-diol], the IC50 in assay [2] (Homo sapiens, A549, 168 h) is 6550 nM.
With `Cc1ncnc2c1ccn2[C@@H]1C[C@H](Oc2cccc3c2CN[C@H](C)CO3)[C@@H](O)[C@H]1O` [Example 208, (1S,2S,3S,5R)-3-(((R)-3-methyl-2,3,4,5-tetrahydrobenzo[f][1,4]oxazepin-6-yl)oxy)-5-(4-methyl-7H-pyrrolo[2,3-d]pyrimidin-7-yl)cyclopentane-1,2-diol], the IC50 in assay [1] was determined as 8 nM.
On the same count and under the same terms, as for `Cc1ncnc2c1ccn2[C@@H]1C[C@H](Oc2cccc3c2CNC[C@@H](C)O3)[C@@H](O)[C@H]1O` [Example 209, (1S,2S,3S,5R)-3-(((R)-2-methyl-2,3,4,5-tetrahydrobenzo[f][1,4]oxazepin-6-yl)oxy)-5-(4-methyl-7H-pyrrolo[2,3-d]pyrimidin-7-yl)cyclopentane-1,2-diol], the figure is 5 nM.

For the origin of these results see US10709709B2, “Substituted carbonucleoside derivatives useful as anticancer agents” (Pfizer Inc., priority 2016, dated 2020).
